Measurements: ChEMBL document CHEMBL4033755, “19F-NMR-Based Dual-Site Reporter Assay for the Discovery and Distinction of Catalytic and Allosteric Kinase Inhibitors” (ACS Med Chem Lett, 2017)
The source made the active and inactive calls. The rule behind the calls is not given here.

What was measured:
[1] = molecular target: T1, Tyrosine-protein kinase ABL1 (Homo sapiens, UniProt P00519); assay: Displacement of ALLO-1 from allosteric site of N-terminal His6-tagged ABL (83 to 534 residues) (unknown origin) expressed in Escherichia coli co-expressing Protein Tyrosine Phosphatase 1b at 25 to 250 uM by 19F NMR spectroscopy based dual-site competition assay
T1 sequence (P00519 whole entry, the tested form may be a part): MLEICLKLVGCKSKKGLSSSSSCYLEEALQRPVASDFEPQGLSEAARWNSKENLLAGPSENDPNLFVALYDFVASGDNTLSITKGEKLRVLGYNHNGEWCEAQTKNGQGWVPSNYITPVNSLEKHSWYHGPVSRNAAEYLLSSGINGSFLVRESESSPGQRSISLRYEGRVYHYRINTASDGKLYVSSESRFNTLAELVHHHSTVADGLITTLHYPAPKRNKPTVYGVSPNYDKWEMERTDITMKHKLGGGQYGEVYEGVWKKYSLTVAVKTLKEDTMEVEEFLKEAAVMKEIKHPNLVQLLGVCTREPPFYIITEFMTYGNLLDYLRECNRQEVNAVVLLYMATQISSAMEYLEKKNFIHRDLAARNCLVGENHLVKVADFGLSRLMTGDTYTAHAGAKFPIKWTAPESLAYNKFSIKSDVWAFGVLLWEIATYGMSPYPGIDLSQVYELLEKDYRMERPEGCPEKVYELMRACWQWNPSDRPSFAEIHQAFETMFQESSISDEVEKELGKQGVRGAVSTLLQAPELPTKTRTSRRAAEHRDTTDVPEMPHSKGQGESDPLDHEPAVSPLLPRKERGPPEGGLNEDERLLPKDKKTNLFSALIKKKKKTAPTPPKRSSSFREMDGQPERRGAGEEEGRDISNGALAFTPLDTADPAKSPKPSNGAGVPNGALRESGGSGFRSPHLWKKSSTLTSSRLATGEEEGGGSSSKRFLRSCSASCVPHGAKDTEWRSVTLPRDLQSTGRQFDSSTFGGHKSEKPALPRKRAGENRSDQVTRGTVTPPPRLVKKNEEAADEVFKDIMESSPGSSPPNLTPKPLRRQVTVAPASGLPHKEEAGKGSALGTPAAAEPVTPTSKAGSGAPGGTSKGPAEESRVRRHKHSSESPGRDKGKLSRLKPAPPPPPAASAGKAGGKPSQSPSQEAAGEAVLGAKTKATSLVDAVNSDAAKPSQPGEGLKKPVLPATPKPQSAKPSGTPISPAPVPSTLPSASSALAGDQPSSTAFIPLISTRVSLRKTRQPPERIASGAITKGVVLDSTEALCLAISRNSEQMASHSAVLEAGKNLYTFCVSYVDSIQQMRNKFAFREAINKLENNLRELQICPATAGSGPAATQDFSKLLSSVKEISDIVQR

[2] = molecular target: T1, Tyrosine-protein kinase ABL1; assay: Displacement of CAT-1 from catalytic site of N-terminal His6-tagged ABL (83 to 534 residues) (unknown origin) expressed in Escherichia coli co-expressing Protein Tyrosine Phosphatase 1b at 25 and 50 uM by 19F NMR spectroscopy based dual-site competition assay
[3] = molecular target: T1, Tyrosine-protein kinase ABL1; assay: Displacement of CAT-1 from catalytic site of N-terminal His6-tagged ABL (83 to 534 residues) (unknown origin) expressed in Escherichia coli co-expressing Protein Tyrosine Phosphatase 1b at 25 to 250 uM by 19F NMR spectroscopy based dual-site competition assay
[4] = molecular target: T1, Tyrosine-protein kinase ABL1; assay: Binding affinity to allosteric site of N-terminal His6-tagged ABL (83 to 534 residues) (unknown origin) expressed in Escherichia coli co-expressing Protein Tyrosine Phosphatase 1b at 25 uM in presence of ABL001
[5] = molecular target: T1, Tyrosine-protein kinase ABL1; assay: Binding affinity to catalytic site of N-terminal His6-tagged ABL (83 to 534 residues) (unknown origin) expressed in Escherichia coli co-expressing Protein Tyrosine Phosphatase 1b by NMR spectroscopy based dual-site competition assay

inhibition [1] | inhibition [2] | inhibition [3] | Activity [4] | Kd [5] [µM] | SMILES
Active | inactive | Active | – | – | FC(F)(F)Oc1ccc(Nc2ccncn2)cc1
– | – | – | Active | 43 | NC(=O)C1CCN(c2ccc(C(F)(F)F)cn2)CC1
